# From patent publication US4619916A, “Tripeptide compounds containing pyroglutamic acid and tryptophan, process for their production and therapeutic applications” (Polifarma S.p.A., priority 1984, dated 1986)
# Where a SMILES comes first, the peptide text is derived from it. [ ]: non-standard residue; d: D form. pGlu = O=C1CC[C@@H](C(=O)O)N1
# What was measured:
# female Swiss albino mice = test: Analgesic activity, writhing test with 3% aqueous acetic acid; assay type: in vivo, mouse; conditions: for Analgesic activity (mean reduction of number of contorsions vs controls): 20 minute observation
# Method: This activity was evaluated with the writhing test, using a 3% aqueous acetic acid solution as pain-causing agent, injected intraperitoneally (0.1 ml/10 g). The experiment was performed with 80 female Swiss albino mice weighing 18-24 g, fasting for three hours and divided into groups of 20 animals each: (1) controls, treated with 0.9% NaCl; (2) those treated with the test tripeptide (10 mg/kg intraperitoneally); (3) those treated with adenosine (2 mg/kg intraperitoneally); (4) those treated with the tripeptide (10 mg/kg intraperitoneally) and adenosine (2 mg/kg intraperitoneally). In groups 1 and 2 the substances were administered 40 minutes before the acetic acid; in group 3 the adenosine was administered 10 minutes before the acetic acid; in group 4 the adenosine was administered 30 minutes after the tripeptide and 10 minutes before the acetic acid. After the acetic acid innoculation, the animals were placed in groups of 5 in plastic cages, and observed for a 20 minute period. The number of contorsions the animals made during that period was recorded. Based on the mean reduction of the number of contorsions of the treated animals with respect to the controls, the analgesic action of the test substance was calculated.
# [1] = test system: Male CD Charles River rats; test: Potentiation of the hypotensive effect of adenosine; assay type: in vivo, rat; conditions: for Effect on the hypotensive effect of adenosine: tripeptide 0.1 mg/kg in the vein, 15 minutes before adenosine (0.15 mg/kg in the vein)
# Method: (§1) Male CD Charles River rats weighing 220-250 g were used, anesthetized with ethyl urethane (1.75 g/kg intraperitoneally). After incannulation of the trachea, the right carotid was isolated and connected by a cannula to a pressure measurement device. The isolated left carotid was used to record the flow by means of an electromagnetic flussimeter. Other parameters recorded were: dp/dt, ECG (electrocardiogram), BPM (beats per minute). All values were recorded on an 8 channel Hewlett Packard polygraph.
# (§2) The tripeptides were dissolved in 0.9% NaCl and injected in the right femoral vein.
# Any interference of synthesized peptides with the hemodynamic effects of adenosine would be shown using the method described. […] In this case the compound according to the invention was pGLU-GLU-TRP.
# [2] = test system: Male CD Charles River rats; test: Hypotensive effect in anesthetized rats (carotid pressure after intravenous injection); assay type: in vivo, rat; conditions: dose of 2 mg/kg, injected in the right femoral vein, in 0.9% NaCl, urethane-anesthetized rats
# Method: as §1, with “After” for “Male CD Charles River rats weighing 220-250 g were used, anesthetized with ethyl urethane (1.75 g/kg intraperitoneally). After”
# as §2
Structure (SMILES),Δ on maximum (lowering of the maximum pressure) [2],Δ on minimum (lowering of the minimum pressure) [2],other results
"Nc1ncnc2c1ncn2[C@@H]1O[C@H](CO)[C@@H](O)[C@H]1O [adenosine, reference compound]",–,–,"Analgesic activity (mean reduction of number of contorsions vs controls) (female Swiss albino mice; adenosine 2 mg/kg intraperitoneally, 10 minutes before acetic acid): 20%; Hemodynamic effect of adenosine alone ([1]; 0.15 mg/kg in the vein): transient hypotensive effect"
"C[C@H](NC(=O)[C@@H]1CCC(=O)N1)C(=O)N[C@@H](Cc1c[nH]c2ccccc12)C(=O)O [pGLU--ALA--TRP, pGLU-ALA-TRP] ([pGlu]-Ala-Trp-OH)",10 mm Hg,20 mm Hg,–
"N=C(N)NCCC[C@H](NC(=O)[C@@H]1CCC(=O)N1)C(=O)N[C@@H](Cc1c[nH]c2ccccc12)C(=O)O [pGLU--ARG--TRP, pGLU-ARG-TRP] ([pGlu]-Arg-Trp-OH)",25 mm Hg,15 mm Hg,–
"NC(=O)C[C@H](NC(=O)[C@@H]1CCC(=O)N1)C(=O)N[C@@H](Cc1c[nH]c2ccccc12)C(=O)O [pGLU--ASN--TRP, pGLU-ASN-TRP] ([pGlu]-Asn-Trp-OH)",35 mm Hg,20 mm Hg,"Analgesic activity of tripeptide together with adenosine (female Swiss albino mice; tripeptide 10 mg/kg i.p. plus adenosine 2 mg/kg i.p. given 30 minutes after the tripeptide and 10 minutes before acetic acid): additive effect; Analgesic activity (mean reduction of number of contorsions vs controls) (female Swiss albino mice; tripeptide 10 mg/kg intraperitoneally, 40 minutes before acetic acid): 25%; Effect on the hypotensive effect of adenosine [1]: potentiates and prolongs the hypotensive effect"
"O=C(O)C[C@H](NC(=O)[C@@H]1CCC(=O)N1)C(=O)N[C@@H](Cc1c[nH]c2ccccc12)C(=O)O [pGLU--ASP--TRP, pGLU-ASP-TRP] ([pGlu]-Asp-Trp-OH)",10 mm Hg,10 mm Hg,–
"NC(=O)CC[C@H](NC(=O)[C@@H]1CCC(=O)N1)C(=O)N[C@@H](Cc1c[nH]c2ccccc12)C(=O)O [pGLU--GLN--TRP, pGLU-GLN-TRP] ([pGlu]-Gln-Trp-OH)",20 mm Hg,10 mm Hg,–
"O=C(O)CC[C@H](NC(=O)[C@@H]1CCC(=O)N1)C(=O)N[C@@H](Cc1c[nH]c2ccccc12)C(=O)O [pGLU--GLU--TRP, pGLU-GLU-TRP] ([pGlu]-Glu-Trp-OH)",20 mm Hg,10 mm Hg,Effect on the hypotensive effect of adenosine [1]: potentiates and prolongs the hypotensive effect
"O=C(CNC(=O)[C@@H]1CCC(=O)N1)N[C@@H](Cc1c[nH]c2ccccc12)C(=O)O [pGLU--GLY--TRP, p-GLU-GLY-TRP] ([pGlu]-Gly-Trp-OH)",25 mm Hg,35 mm Hg,–
CCOC(=O)[C@H](Cc1c[nH]c2ccccc12)NC(=O)[C@@H](NC(=O)[C@@H]1CCC(=O)N1)[C@@H](C)CC [pGLU--ILE--TRP--OEt] ([pGlu]-Ile-Trp-OEt),30 mm Hg,25 mm Hg,–
"CC(C)C[C@H](NC(=O)[C@@H]1CCC(=O)N1)C(=O)N[C@@H](Cc1c[nH]c2ccccc12)C(=O)O [pGLU--LEU--TRP, pGLU-LEU-TRP] ([pGlu]-Leu-Trp-OH)",30 mm Hg,30 mm Hg,–
"CCOC(=O)[C@H](Cc1c[nH]c2ccccc12)NC(=O)[C@H](CC(C)C)NC(=O)[C@@H]1CCC(=O)N1 [pGLU--LEU--TRP--OEt, pGLU-LEU-TRP-OEt] ([pGlu]-Leu-Trp-OEt)",30 mm Hg,20 mm Hg,–
"NCCCC[C@H](NC(=O)[C@@H]1CCC(=O)N1)C(=O)N[C@@H](Cc1c[nH]c2ccccc12)C(=O)O [pGLU--LYS--TRP, pGLU-LYS-TRP] ([pGlu]-Lys-Trp-OH)",35 mm Hg,25 mm Hg,–
"O=C1CC[C@@H](C(=O)N[C@@H](CO)C(=O)N[C@@H](Cc2c[nH]c3ccccc23)C(=O)O)N1 [pGLU--SER--TRP, pGLU-SER-TRP] ([pGlu]-Ser-Trp-OH)",45 mm Hg,35 mm Hg,–
